{
  "source": "patent US20250346576A1",
  "about": "“KCNT1 INHIBITORS COMPRISING A PYRAZOLE CORE AND METHODS OF USE” (PRAXIS PRECISION MEDICINES, INC., priority 2022, published 2025)",
  "key": {"KCNT1 (KNa1.1, Slack)": {"target": "T1, KCNT1 (KNa1.1, Slack) (Homo sapiens, UniProt Q5JUK3)", "T1 construct": "expressed in transfected cells; host or cells: HEK-TREX (tetracycline inducible cell line)", "T1 sequence (Q5JUK3 1-1230)": "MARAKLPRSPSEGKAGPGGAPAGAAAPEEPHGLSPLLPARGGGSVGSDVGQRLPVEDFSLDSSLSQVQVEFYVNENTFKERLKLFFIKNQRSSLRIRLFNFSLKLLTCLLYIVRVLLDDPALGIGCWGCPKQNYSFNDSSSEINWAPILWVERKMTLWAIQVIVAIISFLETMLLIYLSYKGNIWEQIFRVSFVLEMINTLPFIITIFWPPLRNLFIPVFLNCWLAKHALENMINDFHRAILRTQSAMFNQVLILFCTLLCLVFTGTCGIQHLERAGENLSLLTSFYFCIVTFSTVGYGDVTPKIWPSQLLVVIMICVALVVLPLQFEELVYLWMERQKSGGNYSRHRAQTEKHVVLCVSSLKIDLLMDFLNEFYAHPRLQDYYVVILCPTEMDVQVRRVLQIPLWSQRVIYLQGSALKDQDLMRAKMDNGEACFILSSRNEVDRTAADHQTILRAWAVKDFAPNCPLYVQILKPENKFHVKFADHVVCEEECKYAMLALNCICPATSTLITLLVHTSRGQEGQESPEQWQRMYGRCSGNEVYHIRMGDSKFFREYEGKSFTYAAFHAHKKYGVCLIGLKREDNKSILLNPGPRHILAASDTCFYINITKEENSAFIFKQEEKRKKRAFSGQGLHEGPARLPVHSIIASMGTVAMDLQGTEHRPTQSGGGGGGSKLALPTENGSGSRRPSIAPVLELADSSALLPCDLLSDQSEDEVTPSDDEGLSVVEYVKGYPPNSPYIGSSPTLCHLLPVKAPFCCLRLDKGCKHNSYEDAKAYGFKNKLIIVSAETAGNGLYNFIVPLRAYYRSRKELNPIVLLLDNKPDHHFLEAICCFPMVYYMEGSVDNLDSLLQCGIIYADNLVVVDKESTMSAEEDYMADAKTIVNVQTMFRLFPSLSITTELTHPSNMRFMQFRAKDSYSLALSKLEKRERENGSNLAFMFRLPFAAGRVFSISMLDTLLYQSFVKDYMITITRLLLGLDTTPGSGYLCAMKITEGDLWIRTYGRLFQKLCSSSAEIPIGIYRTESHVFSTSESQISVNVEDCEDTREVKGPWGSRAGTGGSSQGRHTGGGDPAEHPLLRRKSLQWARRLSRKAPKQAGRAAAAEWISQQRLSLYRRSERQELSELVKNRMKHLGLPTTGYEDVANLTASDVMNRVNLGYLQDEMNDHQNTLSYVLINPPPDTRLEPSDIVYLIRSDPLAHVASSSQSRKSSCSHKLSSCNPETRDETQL", "experiment": "KCNT1 patch clamp assay (SyncroPatch 384PE, tetracycline inducible HEK-TREX cell line)", "format": "cell-based", "conditions": "WT KCNT1, HEK-TREX cells, perforated patch, step from -80 mV to 0 mV, room temperature; read-out: WT (KCNT1 inhibition IC50)", "experimental": "Inhibition of KCNT1 (KNa1.1, Slack) was evaluated using a tetracycline inducible cell line (HEK-TREX). Currents were recorded using the SyncroPatch 384PE automated, patch clamp system. Pulse generation and data collection were performed with PatchController384 V1.3.0 and DataController384 V1.2.1 (Nanion Technologies). The access resistance and apparent membrane capacitance were estimated using built-in protocols. Current was recorded in perforated patch mode (10 μM escin) from a population of cells. The cells were lifted, triturated, and resuspended at 800,000 cells/ml. The cells were allowed to recover in the cell hotel prior to experimentation. Currents were recorded at room temperature. The external solution contained the following (in mM): NaCl 105, NMDG 40, KCl 4, MgCl2 1, CaCl2 5, and HEPES 10 (pH=7.4, Osmolarity ˜300 mOsm). The extracellular solution was used as the wash, reference, and compound delivery solution. The internal solution contained the following (in mM): NaCl 70, KF 70, KCl 10, EGTA 5, HEPES 5, and Escin 0.01 (pH=7.2, Osmolarity ˜295 mOsm). Escin is made at a 5 mM stock in water, aliquoted, and stored at −20° C. The compound plate was created at 2× concentrated in the extracellular solution. The compound was diluted to 1:2 when added to the recording well. The amount of DMSO in the extracellular solution was held constant at the level used for the highest tested concentration. A holding potential of −80 mV with a 100 ms step to 0 mV was used. Mean current was measured during the step to 0 mV. […] The average mean current from 3 sweeps was calculated and the percent inhibition of each compound was calculated. The percent inhibition as a function of the compound concentration was fit with a Hill equation to derive IC50, slope, minimum parameters, and maximum parameters. If KCNT1 inhibition was less than 50% at the highest tested concentration or if an IC50 could not be calculated, then a percent inhibition was reported in place of the IC50.\nIn this table, “A” indicates IC50 of less than or equal to 1 μM; “B” indicates inhibition of between 1 μM to 20 μM; and “C” indicates inhibition of greater than or equal to 20 μM."}, "[1]": {"experiment": "Log D assay (1-octanol/buffer shake flask, LC/MS/MS)", "format": "physicochemical", "conditions": "1-octanol/phosphate buffer; 1-octanol / 0.1 M phosphate buffer pH 7.4", "from_the_text": "Log D: The Log D assay is a miniaturized 1-octanol/buffer shake flask method followed by LC/MS/MS analysis. It is typically measured by determining the partition of a compound between an organic solvent (1-octanol) and an aqueous buffer (0.1 M phosphate buffer, pH 7.4; Varied buffer pH can be set). Since log D is pH dependent, the pH of the aqueous phase is always specified and is commonly measured at pH 7.4, the physiological pH of body fluids. […] Correct the peak areas by dilution factors and embedded internal standard, and the ratio of the corrected peak areas will be used to calculate the results (Log D value). • 8) Use the QC samples to monitor the process Log D determination. • 9) Data Analysis: The Log D value for each compound is calculated by the following equation: […]"}},
  "data": [
    {"smiles": "Cn1nc(C(F)(F)F)cc1C(=O)NC1(c2cc(-c3ccnc(C(F)(F)F)c3)nn2C)CCC1", "note": "[Compound 1064, 1-methyl-N-(1-(1-methyl-3-(2-(trifluoromethyl)pyridin-4-yl)-1H-pyrazol-5-yl)cyclobutyl)-3-(trifluoromethyl)-1H-pyrazole-5-carboxamide]", "values": [
      {"measurement": "IC50", "setting": "KCNT1 (KNa1.1, Slack)", "result": "≤ 1000", "unit": "nM"},
      {"measurement": "logD at 1 h", "setting": "[1]", "result": 4.4}
    ]},
    {"smiles": "Cn1nc(C(F)(F)F)cc1C(=O)NC(C)(C)c1cc(-c2ccnc(C(F)(F)F)c2)nn1C", "note": "[Compound 1063, 1-methyl-N-(2-(1-methyl-3-(2-(trifluoromethyl)pyridin-4-yl)-1H-pyrazol-5-yl)propan-2-yl)-3-(trifluoromethyl)-1H-pyrazole-5-carboxamide]", "values": [
      {"measurement": "IC50", "setting": "KCNT1 (KNa1.1, Slack)", "result": "≤ 1000", "unit": "nM"},
      {"measurement": "logD at 1 h", "setting": "[1]", "result": 3}
    ]}
  ]
}
